ChEMBL document CHEMBL1201862, “PubChem BioAssay data set” (2004)
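Five compound concentrations were applied to cells in 96-well plates for 48 hours; endpoints were derived by simple linear interpolation of the resulting dose-response curve. At the GI50, growth is halved.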 Activity calls are given as the source filed them. Cut-off read from the data, not from the text of the source: active = GI50 up to about 1.1 µM and inactive = higher.

Columns and labels:
Assay in all cases: inhibition of tumour cell growth, NCI panel, 48 h
[1] = tested on: SNB-75
[2] = tested on: A549
[3] = tested on: TK-10
[4] = tested on: HOP-92
[5] = tested on: SK-MEL-2
[6] = tested on: OVCAR-4
[7] = tested on: NCI-H226
[8] = tested on: NCI-H23
[9] = tested on: M14
[10] = tested on: HCT-116
[11] = tested on: UACC-257
[12] = tested on: SF-539
[13] = tested on: LOX IMVI
[14] = tested on: SF-268
[15] = tested on: RPMI-8226
[16] = tested on: K562
[17] = tested on: A498
[18] = tested on: MOLT-4

SMILES | GI50 [1] | GI50 [2] | GI50 [3] | GI50 [4] | GI50 [5] | GI50 [6] | GI50 [7] | GI50 [8] | GI50 [9] | GI50 [10] | GI50 [11] | GI50 [12] | GI50 [13] | GI50 [14] | GI50 [15] | GI50 [16] | GI50 [17] | GI50 [18]
CC1=CC(N2C(=O)C(C)=CC2O)NC1=O (centres undefined) | > 100 µM (inactive) | > 100 µM (inactive) | > 100 µM (inactive) | > 100 µM (inactive) | > 100 µM (inactive) | > 100 µM (inactive) | > 100 µM (inactive) | > 100 µM (inactive) | > 100 µM (inactive) | > 100 µM (inactive) | > 100 µM (inactive) | > 100 µM (inactive) | > 100 µM (inactive) | > 100 µM (inactive) |  |  |  | 
CC1=NC=C(O)c2ccccc2O1 |  | > 100 µM (inactive) | > 100 µM (inactive) | > 100 µM (inactive) | > 100 µM (inactive) | > 100 µM (inactive) |  | > 100 µM (inactive) | > 100 µM (inactive) | > 100 µM (inactive) | > 100 µM (inactive) | > 100 µM (inactive) | > 100 µM (inactive) | > 100 µM (inactive) | > 100 µM (inactive) | > 100 µM (inactive) | > 100 µM (inactive) | > 100 µM (inactive)
CCCCCCC(O)CC[C@H]1CCC[C@@H](C)N1 (some centres undefined) | > 31.6 µM (inactive) | > 100 µM (inactive) | > 100 µM (inactive) | > 100 µM (inactive) | > 10 µM (inactive) | > 10 µM (inactive) | > 100 µM (inactive) | > 10 µM (inactive) | > 100 µM (inactive) | > 100 µM (inactive) | > 10 µM (inactive) | > 100 µM (inactive) | > 100 µM (inactive) | > 31.6 µM (inactive) | > 100 µM (inactive) | > 100 µM (inactive) | > 10 µM (inactive) | > 100 µM (inactive)
O=c1nc(/C=C/c2ccccc2Cl)cc2n1CCN2CCO | 26.3 µM (inactive) |  | > 100 µM (inactive) | > 100 µM (inactive) | 72.3 µM (inactive) | 80.2 µM (inactive) | 97.9 µM (inactive) |  | > 100 µM (inactive) | > 100 µM (inactive) |  | > 100 µM (inactive) | > 100 µM (inactive) | 67.6 µM (inactive) | > 100 µM (inactive) | 90.2 µM (inactive) |  | 75.9 µM (inactive)
O=S(=O)(N/N=C/c1ccc(/C=N/NS(=O)(=O)c2ccccc2)cc1)c1ccccc1 | 70.3 µM (inactive) | 77.6 µM (inactive) | 60.7 µM (inactive) | 31.8 µM (inactive) | 43.5 µM (inactive) | 63.7 µM (inactive) | > 100 µM (inactive) | 35.2 µM (inactive) | > 100 µM (inactive) | 57.3 µM (inactive) | 53.2 µM (inactive) | 29 µM (inactive) | 16 µM (inactive) | > 100 µM (inactive) | 45 µM (inactive) | 29.4 µM (inactive) | 68.5 µM (inactive) | 21.5 µM (inactive)
Cn1cc(NC(=O)c2cc(NC(=O)CCCCCCCCCCC(=O)Nc3cc(C(=O)Nc4cc(C(=O)NCCC(=N)N)n(C)c4)n(C)c3)cn2C)cc1C(=O)NCCC(=N)N | > 100 µM (inactive) | 22.2 µM (inactive) | 29.4 µM (inactive) |  | 35.8 µM (inactive) | 41.4 µM (inactive) | > 100 µM (inactive) | 32 µM (inactive) | 28.2 µM (inactive) | 27 µM (inactive) | 7.8 µM (inactive) | 47.6 µM (inactive) | 40.4 µM (inactive) | 30.6 µM (inactive) |  | 74 µM (inactive) |  | 45.9 µM (inactive)
CN1CCCc2nc3ccccc3n2C1 | > 100 µM (inactive) | > 100 µM (inactive) | > 100 µM (inactive) | > 100 µM (inactive) | > 100 µM (inactive) | > 100 µM (inactive) | > 100 µM (inactive) | > 100 µM (inactive) | > 100 µM (inactive) | > 100 µM (inactive) | > 100 µM (inactive) | > 100 µM (inactive) | > 100 µM (inactive) | > 100 µM (inactive) | 23.7 µM (inactive) | > 100 µM (inactive) | > 100 µM (inactive) | > 100 µM (inactive)
Cc1cccc(C)c1NC(=O)C(=O)C(C#N)c1ccccc1 (centres undefined) | > 100 µM (inactive) | > 100 µM (inactive) | > 100 µM (inactive) | > 100 µM (inactive) | > 100 µM (inactive) | > 100 µM (inactive) | > 100 µM (inactive) | > 100 µM (inactive) | > 100 µM (inactive) | > 100 µM (inactive) | > 100 µM (inactive) | > 100 µM (inactive) | > 100 µM (inactive) | > 100 µM (inactive) |  | > 100 µM (inactive) | > 100 µM (inactive) | > 100 µM (inactive)
O=c1/c(=C/c2ccccc2O)sc2nc3ccccc3n12 | 84.9 µM (inactive) | 41.8 µM (inactive) | > 100 µM (inactive) | 24.4 µM (inactive) | 32.3 µM (inactive) | 80.4 µM (inactive) | 52.1 µM (inactive) | 38.7 µM (inactive) | 47.9 µM (inactive) | 47.3 µM (inactive) | 62.7 µM (inactive) | 35.5 µM (inactive) | 35.5 µM (inactive) | 16.6 µM (inactive) | 21.2 µM (inactive) | 33.6 µM (inactive) | 49.4 µM (inactive) | 18.1 µM (inactive)
COC(=O)CCSC(=O)Nc1ccc(/N=N/c2ccccc2)cc1 | 31 µM (inactive) | 76.4 µM (inactive) | 61.8 µM (inactive) | 95.7 µM (inactive) |  | 30.4 µM (inactive) | 60.4 µM (inactive) | 34.2 µM (inactive) | 70 µM (inactive) | 59.3 µM (inactive) | 56.5 µM (inactive) | > 100 µM (inactive) | 40.5 µM (inactive) | > 100 µM (inactive) | 49.1 µM (inactive) | 45.8 µM (inactive) | 29.5 µM (inactive) | 27.2 µM (inactive)
COc1nc2c(nc(N)n2C2OCC(O)C(O)C2O)c(=O)n1C (centres undefined) | > 100 µM (inactive) | > 100 µM (inactive) | > 100 µM (inactive) | > 100 µM (inactive) |  | > 100 µM (inactive) | > 100 µM (inactive) | > 100 µM (inactive) | > 100 µM (inactive) | > 100 µM (inactive) | > 100 µM (inactive) | > 100 µM (inactive) | > 100 µM (inactive) | > 100 µM (inactive) |  | > 100 µM (inactive) | > 100 µM (inactive) | > 100 µM (inactive)
Cc1cc(N(CCC#N)CCC#N)ccc1/C=C1/CN(N2C(=O)/C(=C/c3ccc(N(CCC#N)CCC#N)cc3C)N=C2c2ccccc2)C(c2ccccc2)=N1 | 16.9 µM (inactive) | > 100 µM (inactive) | 26.5 µM (inactive) | 44.6 µM (inactive) |  | > 100 µM (inactive) | > 100 µM (inactive) | 42.8 µM (inactive) | 90.4 µM (inactive) | > 100 µM (inactive) | > 100 µM (inactive) | 99.5 µM (inactive) | > 100 µM (inactive) | > 100 µM (inactive) |  | > 100 µM (inactive) | > 100 µM (inactive) | > 100 µM (inactive)
CN1c2ccccc2N(C(=O)c2ccc(Cl)cc2)C(CC(=O)O)c2cccn21 (centres undefined) | > 100 µM (inactive) | > 100 µM (inactive) | > 100 µM (inactive) | > 100 µM (inactive) | > 100 µM (inactive) | > 100 µM (inactive) | > 100 µM (inactive) | > 100 µM (inactive) | > 100 µM (inactive) |  | > 100 µM (inactive) | > 100 µM (inactive) | > 100 µM (inactive) | > 100 µM (inactive) | > 100 µM (inactive) | > 100 µM (inactive) | > 100 µM (inactive) | > 100 µM (inactive)
N#C/C(=C\c1ccccc1Br)C(=O)c1ccccc1 |  | > 40.7 µM (inactive) | > 63.4 µM (inactive) | > 100 µM (inactive) | > 65.5 µM (inactive) | 7.14 µM (inactive) | > 54.8 µM (inactive) | > 40.4 µM (inactive) | > 34.8 µM (inactive) | 2.81 µM (inactive) | > 60 µM (inactive) | > 91.2 µM (inactive) | 11.8 µM (inactive) | > 46 µM (inactive) | 9.86 µM (inactive) | 0.55 µM (active) | > 100 µM (inactive) | 12.2 µM (inactive)
Cc1cccc(NC(=O)c2cc3cc(/N=N/c4ccccc4Cl)ccc3oc2=O)c1 | 60.8 µM (inactive) | 77.3 µM (inactive) | 36 µM (inactive) | 33.3 µM (inactive) |  | 29.4 µM (inactive) | 13 µM (inactive) | 19.7 µM (inactive) | 26.8 µM (inactive) | 23.7 µM (inactive) | 40.4 µM (inactive) | 30.3 µM (inactive) | 10.4 µM (inactive) | 23.3 µM (inactive) | 19.9 µM (inactive) | 61 µM (inactive) | > 100 µM (inactive) | 22.8 µM (inactive)
O=S1(=O)OCCOS(=O)(=O)C1Cc1ccccc1 | 47.3 µM (inactive) | 44.3 µM (inactive) | > 100 µM (inactive) | 70.6 µM (inactive) |  | 43.5 µM (inactive) | 46.1 µM (inactive) | 64.1 µM (inactive) |  | 48.4 µM (inactive) | 53.6 µM (inactive) | 26.5 µM (inactive) | 35.7 µM (inactive) | 39.1 µM (inactive) | 18.7 µM (inactive) | 61 µM (inactive) | 36.8 µM (inactive) | 25.3 µM (inactive)
Cn1c(=O)nc2n(-c3ccc(F)c(F)c3)c3ccccc3nc-2c1=O | 23.3 µM (inactive) | 15.9 µM (inactive) | 32.3 µM (inactive) |  | 17 µM (inactive) | 8.83 µM (inactive) | 30.3 µM (inactive) | 10.8 µM (inactive) | 13.8 µM (inactive) | 13.2 µM (inactive) | 6.68 µM (inactive) | 27.1 µM (inactive) |  | 18.5 µM (inactive) | 16.8 µM (inactive) | 15.5 µM (inactive) | 42.9 µM (inactive) | 
